Reference: patent publication US20140073634A1 (Institute For Applied Cancer Science/The University of …, priority 2012, published 2014)

Tested on: 293T-HRE-GFP-luc cells
Assay: Cell-based reporter assay for IC50 determinations (HRE-luciferase, hypoxia)
Conditions: 6 h, 6 hrs hypoxia (1% O2), luminescence
Method: Cell-Based Reporter Assay for IC50 Determinations
293T-HRE-GFP-luc cells were routinely maintained in DMEM media (high glucose version with GlutaMAX and HEPES, Gibco, catalog #10564) supplemented with 10% fetal bovine serum and 2 μg/mL puromycin (Invitrogen, catalog #A11138-03) using a humidified incubator (normoxia conditions consisting of 37° C., 5% CO2 and ambient O2).
In preparation for the reporter assay, cells were harvested and resuspended in DMEM media (high glucose version with GlutaMAX and HEPES) supplemented with 10% fetal bovine serum. Cells were inoculated into 384-well white Culturplates (Perkin Elmer catalog #6007680) at a density of 12,000 cells/well in a volume of […]. The microplates were incubated overnight (approximately 17-19 hours) at 37° C. with 5% CO2 and ambient O2. Stock solutions of the test compounds were prepared in DMSO (Sigma, Catalog #D2650) and serially diluted 1:3 using DMSO. Compounds were additionally diluted (1:50) with culturemedium and 10 µL were added per well to the Culturplate. Following a 30 min. incubation under normoxia conditions, the plates were incubated in hypoxia for 6 hrs. (37° C., 5% CO2 and 1% O2). Steadylite Plus (Perkin Elmer, catalog #6016751) was then added ([…]), the plates were mixed on an orbital shaker at room temperature in the dark for 15 min., and luminescence was measured using an Envision plate reader (Perkin Elmer). IC50 values were calculated using a four-parameter logistic curve fit. Results are shown below in Table 2; ND indicates no data.

## CN1CCN(c2cc(Cn3cccc(-c4nc(-c5ccc(OC(F)(F)F)cc5)no4)c3=O)ccn2)CC1 [Example 20, 1-((2-(4-methylpiperazin-1-yl)pyridin-4-yl)methyl)-3-(3-(4-(trifluoromethoxy)phenyl)-1,2,4-oxadiazol-5-yl)pyridin-2(1H)-one]
  IC50: 0.1 to 1 µM

## Cc1ccc(-c2nnc(-c3ccc(OC(F)(F)F)cc3)o2)c(=O)n1Cc1ccnc(N2CCN(C)CC2)c1 [Example 21, 6-methyl-1-((2-(4-methylpiperazin-1-yl)pyridin-4-yl)methyl)-3-(5-(4-(trifluoromethoxy)phenyl)-1,3,4-oxadiazol-2-yl)pyridin-2(1H)-one]
  IC50: 1 to 10 µM

## Cc1ccc(-c2nc(-c3ccc(OC(F)(F)F)cc3)no2)c(=O)n1Cc1cccc(C(N)=O)c1 [Example 22, 3-((6-Methyl-2-oxo-3-(3-(4-(trifluoromethoxy)phenyl)-1,2,4-oxadiazol-5-yl)pyridin-1(2H)-yl)methyl)benzamide]
  IC50: 0.1 to 1 µM

## CNC(=O)c1cccc(Cn2c(C)ccc(-c3nc(-c4ccc(OC(F)(F)F)cc4)no3)c2=O)c1 [Example 23, N-Methyl-3-((6-methyl-2-oxo-3-(3-(4-(trifluoromethoxy)phenyl)-1,2,4-oxadiazol-5-yl)pyridin-1(2H)-yl)methyl)benzamide]
  IC50: 0.1 to 1 µM

## Cc1ccc(Cn2nc(-c3nc(-c4ccc(OC(F)(F)F)cc4)no3)ccc2=O)cc1 [Example 24, 2-(4-Methylbenzyl)-6-(3-(4-(trifluoromethoxy)phenyl)-1,2,4-oxadiazol-5-yl)pyridazin-3(2H)-one]
  IC50: < 0.1 µM

## NC(=O)c1cccc(Cn2cc(-c3nc(-c4ccc(OC(F)(F)F)cc4)no3)ccc2=O)c1 [Example 25, 3-((2-oxo-5-(3-(4-(trifluoromethoxy)phenyl)-1,2,4-oxadiazol-5-yl)pyridin-1(2H)-yl)methyl)benzamide]
  IC50: < 0.1 µM

## Cc1ccc(Cn2cc(-c3nc(-c4ccc(OC(F)(F)F)cc4)no3)ccc2=O)cc1 [Example 26, 1-(4-Methylbenzyl)-5-(3-(4-(trifluoromethoxy)phenyl)-1,2,4-oxadiazol-5-yl)pyridin-2(1H)-one]
  IC50: < 0.1 µM

## Cc1ccc(-c2nnc(-c3ccc(OC(F)(F)F)cc3)o2)c(=O)n1Cc1ccnc(N2CCOCC2)c1 [Example 27, 6-Methyl-1-((2-morpholinopyridin-4-yl)methyl)-3-(5-(4-(trifluoromethoxy)phenyl)-1,3,4-oxadiazol-2-yl)pyridin-2(1H)-one]
  IC50: 0.1 to 1 µM

## Cc1ccc(-c2nnc(-c3ccc(OC(F)(F)F)cc3)o2)c(=O)n1Cc1ccnc(N2CCC(C#N)CC2)c1 [Example 28, 1-(4-((6-Methyl-2-oxo-3-(5-(4-(trifluoromethoxy)phenyl)-1,3,4-oxadiazol-2-yl)pyridin-1(2H)-yl)methyl)pyridin-2-yl)piperidine-4-carbonitrile]
  IC50: 0.1 to 1 µM

## COC(=O)Cc1cccc(Cn2nc(-c3nc(-c4ccc(OC(F)(F)F)cc4)no3)ccc2=O)c1 [Example 29, Methyl 2-{3-[(6-oxo-3-{3-[4-(trifluoromethoxy)phenyl]-1,2,4-oxadiazol-5-yl}-1,6-dihydropyridazin-1-yl)methyl]phenyl}acetate]
  IC50: < 0.1 µM

## COC(=O)C(C)(C)c1cccc(Cn2nc(-c3nc(-c4ccc(OC(F)(F)F)cc4)no3)ccc2=O)c1 [Example 30, Methyl 2-methyl-2-{3-[(6-oxo-3-{3-[4-(trifluoromethoxy)phenyl]-1,2,4-oxadiazol-5-yl}-1,6-dihydropyridazin-1-yl)methyl]phenyl}propanoate]
  IC50: < 0.1 µM

## O=c1ccc(-c2nc(-c3ccc(OC(F)(F)F)cc3)no2)cn1Cc1cccc(N2CCCC2)c1 [Example 31, 1-{[3-(Pyrrolidin-1-yl)phenyl]methyl}-5-{3-[4-(trifluoromethoxy)phenyl]-1,2,4-oxadiazol-5-yl}-1,2-dihydropyridin-2-one]
  IC50: < 0.1 µM

## O=c1ccc(-c2nc(-c3ccc(OC(F)(F)F)cc3)no2)cn1Cc1cccc(O)c1 [Example 32, 1-[(3-Hydroxyphenyl)methyl]-5-{3-[4-(trifluoromethoxy)phenyl]-1,2,4-oxadiazol-5-yl}-1,2-dihydropyridin-2-one]
  IC50: 0.1 to 1 µM

## COCCOc1cccc(Cn2cc(-c3nc(-c4ccc(OC(F)(F)F)cc4)no3)ccc2=O)c1 [Example 33, 1-{[3-(2-Methoxyethoxy)phenyl]methyl}-5-{3-[4-(trifluoromethoxy)phenyl]-1,2,4-oxadiazol-5-yl}-1,2-dihydropyridin-2-one]
  IC50: 0.1 to 1 µM

## NCCOc1cccc(Cn2cc(-c3nc(-c4ccc(OC(F)(F)F)cc4)no3)ccc2=O)c1 [Example 34, 1-{[3-(2-Aminoethoxy)phenyl]methyl}-5-{3-[4-(trifluoromethoxy)phenyl]-1,2,4-oxadiazol-5-yl}-1,2-dihydropyridin-2-one]
  IC50: < 0.1 µM

## CN(C)S(=O)(=O)c1cccc(Cn2cc(-c3nc(-c4ccc(OC(F)(F)F)cc4)no3)ccc2=O)c1 [Example 35, N,N-Dimethyl-3-[(2-oxo-5-{3-[4-(trifluoromethoxy)phenyl]-1,2,4-oxadiazol-5-yl}-1,2-dihydropyridin-1-yl)methyl]benzene-1-sulfonamide]
  IC50: < 0.1 µM

## CC(C)(C(=O)O)c1cccc(Cn2cc(-c3nc(-c4ccc(OC(F)(F)F)cc4)no3)ccc2=O)c1 [Example 36, 2-Methyl-2-{3-[(2-oxo-5-{3-[4-(trifluoromethoxy)phenyl]-1,2,4-oxadiazol-5-yl}-1,2-dihydropyridin-1-yl)methyl]phenyl}propanoic acid]
  IC50: 0.1 to 1 µM

## CCCS(=O)(=O)c1cccc(Cn2cc(-c3nc(-c4ccc(OC(F)(F)F)cc4)no3)ccc2=O)c1 [Example 37, 1-{[3-(propane-1-sulfonyl)phenyl]methyl}-5-{3-[4-(trifluoromethoxy)phenyl]-1,2,4-oxadiazol-5-yl}-1,2-dihydropyridin-2-one]
  IC50: < 0.1 µM

## CC(C)(CO)c1cccc(Cn2cc(-c3nc(-c4ccc(OC(F)(F)F)cc4)no3)ccc2=O)c1 [Example 38, 1-{[3-(1-Hydroxy-2-methylpropan-2-yl)phenyl]methyl}-5-{3-[4-(trifluoromethoxy)phenyl]-1,2,4-oxadiazol-5-yl}-1,2-dihydropyridin-2-one]
  IC50: 0.1 to 1 µM

## CC(C)(O)c1cccc(Cn2cc(-c3nc(-c4ccc(OC(F)(F)F)cc4)no3)ccc2=O)c1 [Example 39, 1-{[3-(2-Hydroxypropan-2-yl)phenyl]methyl}-5-{3-[4-(trifluoromethoxy)phenyl]-1,2,4-oxadiazol-5-yl}-1,2-dihydropyridin-2-one]
  IC50: < 0.1 µM

## CN(C)C(=O)/C=C/c1cccc(Cn2cc(-c3nc(-c4ccc(OC(F)(F)F)cc4)no3)ccc2=O)c1 [Example 40, (2E)-N,N-dimethyl-3-{3-[(2-oxo-5-{3-[4-(trifluoromethoxy)phenyl]-1,2,4-oxadiazol-5-yl}-1,2-dihydropyridin-1-yl)methyl]phenyl}prop-2-enamide]
  IC50: < 0.1 µM

## CS(=O)(=O)C1CCN(c2cccc(Cn3cc(-c4nc(-c5ccc(OC(F)(F)F)cc5)no4)ccc3=O)c2)CC1 [Example 41, 1-{[3-(4-Methanesulfonylpiperidin-1-yl)phenyl]methyl}-5-{3-[4-(trifluoromethoxy)phenyl]-1,2,4-oxadiazol-5-yl}-1,2-dihydropyridin-2-one]
  IC50: < 0.1 µM

## O=c1ccc(-c2nc(-c3ccc(OC(F)(F)F)cc3)no2)cn1Cc1cccc(CCO)c1 [Example 42, 1-{[3-(2-Hydroxyethyl)phenyl]methyl}-5-{3-[4-(trifluoromethoxy)phenyl]-1,2,4-oxadiazol-5-yl}-1,2-dihydropyridin-2-one]
  IC50: < 0.1 µM

## O=c1ccc(-c2nc(-c3ccc(OC(F)(F)F)cc3)no2)cn1Cc1cccc(CO)c1 [Example 43, 1-{[3-(Hydroxymethyl)phenyl]methyl}-5-{3-[4-(trifluoromethoxy)phenyl]-1,2,4-oxadiazol-5-yl}-1,2-dihydropyridin-2-one]
  IC50: < 0.1 µM

## CC(=O)SCc1cccc(Cn2cc(-c3nc(-c4ccc(OC(F)(F)F)cc4)no3)ccc2=O)c1 [Example 44, 1-({3-[(Acetylsulfanyl)methyl]phenyl}methyl)-5-{3-[4-(trifluoromethoxy)phenyl]-1,2,4-oxadiazol-5-yl}-1,2-dihydropyridin-2-one]
  IC50: < 0.1 µM

## O=c1ccc(-c2nc(-c3ccc(OC(F)(F)F)cc3)no2)cn1Cc1cccc(CS)c1 [Example 45, 1-{[3-(Sulfanylmethyl)phenyl]methyl}-5-{3-[4-(trifluoromethoxy)phenyl]-1,2,4-oxadiazol-5-yl}-1,2-dihydropyridin-2-one]
  IC50: < 0.1 µM

## COC(=O)CCc1cccc(Cn2cc(-c3nc(-c4ccc(OC(F)(F)F)cc4)no3)ccc2=O)c1 [Example 46, Methyl 3-{3-[(2-oxo-5-{3-[4-(trifluoromethoxy)phenyl]-1,2,4-oxadiazol-5-yl}-1,2-dihydropyridin-1-yl)methyl]phenyl}propanoate]
  IC50: < 0.1 µM

## O=C(O)CCc1cccc(Cn2cc(-c3nc(-c4ccc(OC(F)(F)F)cc4)no3)ccc2=O)c1 [Example 47, 3-{3-[(2-oxo-5-{3-[4-(trifluoromethoxy)phenyl]-1,2,4-oxadiazol-5-yl}-1,2-dihydropyridin-1-yl)methyl]phenyl}propanoic acid]
  IC50: 0.1 to 1 µM

## O=c1ccc(-c2nc(-c3ccc(OC(F)(F)F)cc3)no2)cn1Cc1cccc(CCCO)c1 [Example 48, 1-{[3-(3-Hydroxypropyl)phenyl]methyl}-5-{3-[4-(trifluoromethoxy)phenyl]-1,2,4-oxadiazol-5-yl}-1,2-dihydropyridin-2-one]
  IC50: < 0.1 µM
